From patent US20240131028A1, “CHEMOVACCINATION AGAINST PLASMODIUM INFECTION WITH SELECTIVE PLASMEPSIN X INHIBITORS” (Merck Sharp & Dohme LLC, priority 2021, published 2024) come the findings set out here.

Structures are written as SMILES.

In this assay the test system is ring stage parasites (Pf). The assay is described as follows: Parasite lactate dehydrogenase (LDH) growth assay (Parasite Assay, PfLDH Assay). The format is cell-based, P. falciparum. Conditions: Table 3; 72 hours growth, LDH readout; read-out: EC50. The procedure: The parasite stock was maintained at 4% haematocrit in RPMI-Hepes media buffered with sodium bicarbonate and supplemented with 5% heat inactivated human serum and 0.5% albumax. […] On the day of assay set up, a blood smear of the parasite culture was Giemsa stained and counted. The parasitemia was adjusted to 0.7% rings and the haematocrit was diluted to 2% in RPMI-Hepes media buffered with sodium bicarbonate and supplemented with 5% heat inactivated human serum and 0.5% albumax. 30 μl of diluted parasites are then added into 10 μl of media+compound in pre-prepared Greiner TC assay plates. Parasite assay plates were placed in gassed humidified boxes in single layer and allowed to incubate at 37° C. for 72 hours. After 72 hours growth, assay plates were sealed with parafilm and frozen flat, in single file at −80° C. overnight. On the following day, assay plates were allowed to thaw at room temperature for 4 hours to which an LDH assay was performed to measure parasite growth.
Usually EC50 stands for the concentration giving half of the maximal effect. As for `CCC1(CC)CC(=O)N(CC2C(C(=O)N[C@H]3C[C@@H](C(F)(F)F)Oc4ccccc43)C2(F)F)C(=N)N1` (single isomer, unassigned) [Example 17A], the EC50 is 47 nM. With `CCC1(CC)CC(=O)N(CC2C(C(=O)N[C@H]3C[C@@H](C(F)(F)F)Oc4ccccc43)C2(F)F)C(=N)N1` (single isomer, unassigned) [Example 17B] the figure was 20 nM; with `CCC1(CC)CC(=O)N(C[C@H]2C(C)[C@@H]2C(=O)N[C@H]2CC(C)(C)Oc3ccccc32)C(=N)N1` (single isomer, unassigned) [Example 25A], 84 nM; with `CCC1(CC)CC(=O)N(C[C@H]2C(C)[C@@H]2C(=O)N[C@H]2CC(C)(C)Oc3ccccc32)C(=N)N1` (single isomer, unassigned) [Example 25B], 25 nM. With `CCC1(CC)CC(=O)N(C[C@H]2C(C)[C@@H]2C(=O)N[C@H]2c3ccccc3CC2(C)O)C(=N)N1` (single isomer, unassigned) [Example 29A] the figure was 203 nM. `CCC1(CC)CC(=O)N(C[C@H]2C(C)[C@@H]2C(=O)N[C@H]2c3ccccc3CC2(C)O)C(=N)N1` (single isomer, unassigned) [Example 29B]: the EC50 came to 351 nM. With `CCC1(CC)CC(=O)N(C[C@H]2C(C)[C@@H]2C(=O)N[C@H]2c3ccccc3CC2(C)O)C(=N)N1` (single isomer, unassigned) [Example 29C] the figure was 113 nM. With `CCC1(CC)CC(=O)N(C[C@H]2C(C)[C@@H]2C(=O)N[C@@H]2c3ccccc3OC(C)(C)[C@H]2O)C(=N)N1` (single isomer, unassigned) [Example 30A], the EC50 was determined as 45 nM. As for `CCC1(CC)CC(=O)N(C[C@H]2C(C)[C@@H]2C(=O)N[C@@H]2c3ccccc3OC(C)(C)[C@H]2O)C(=N)N1` (single isomer, unassigned) [Example 30B], the EC50 was 7.7 nM. Consider `CCC1(CC)CC(=O)N(C[C@H]2C(C)[C@@H]2C(=O)N[C@@H]2c3ccccc3OCC2(C)O)C(=N)N1` (single isomer, unassigned) [Example 35A], for which the EC50 stood at 85 nM. With `CCC1(CC)CC(=O)N(C[C@H]2C(C)[C@@H]2C(=O)N[C@@H]2c3ccccc3OCC2(C)O)C(=N)N1` (single isomer, unassigned) [Example 35B], the EC50 was 220 nM. `CC1[C@H](C(c2cccnc2)N2C(=N)NC(C)(C)CC2=O)[C@H]1C(=O)N[C@H]1C[C@H](C(F)(F)F)Oc2ccccc21` (single isomer, unassigned) [Example 54A]: the EC50 is 1 nM. Regarding `CC1[C@H](C(c2cccnc2)N2C(=N)NC(C)(C)CC2=O)[C@H]1C(=O)N[C@H]1C[C@H](C(F)(F)F)Oc2ccccc21` (single isomer, unassigned) [Example 54B], the 50% effective concentration (EC50) was 130 nM. Under `CCC1(CC)CC(=O)N(C(c2cccnc2)[C@H]2C(C)[C@@H]2C(=O)N[C@H]2C[C@H](C(F)(F)F)Oc3ccccc32)C(=N)N1` (single isomer, unassigned) [Example 55A] stands 0.8 nM; under `CCC1(CC)CC(=O)N(C(c2cccnc2)[C@H]2C(C)[C@@H]2C(=O)N[C@H]2C[C@H](C(F)(F)F)Oc3ccccc32)C(=N)N1` (single isomer, unassigned) [Example 55B], 180 nM; under `CCC1(C)CC(NC(=O)[C@H]2C[C@@H]2[C@@H](CCOC)N2C(=N)NC(C)(C)CC2=O)c2ccccc2O1` (single isomer, unassigned) [Example 75B], 7.5 nM. With `CCC1(C)CC(NC(=O)[C@H]2C[C@@H]2[C@@H](CCOC)N2C(=N)NC(C)(C)CC2=O)c2ccccc2O1` (single isomer, unassigned) [Example 75C] the figure was 7 nM.

As for `CCC1(C)CC(NC(=O)[C@H]2C[C@@H]2[C@@H](CCOC)N2C(=N)NC(C)(C)CC2=O)c2ccccc2O1` (single isomer, unassigned) [Example 75D], the EC50 worked out at 7 nM.

In the case of `CC(C)C1(C)CC(NC(=O)[C@H]2C[C@@H]2CN2C(=N)NC(C)(C)CC2=O)c2ccccc2O1` (single isomer, unassigned) [Example 79B], the EC50 was determined as 275 nM. Turning to `CC(C)C1(C)CC(NC(=O)[C@H]2C[C@@H]2CN2C(=N)NC(C)(C)CC2=O)c2ccccc2O1` (single isomer, unassigned) [Example 79C], the EC50 was 289 nM.

Regarding `COCC[C@H]([C@H]1C[C@@H]1C(=O)NC1CC(C)(C(C)C)Oc2ccccc21)N1C(=N)NC(C)(C)CC1=O` (single isomer, unassigned) [Example 80A], the EC50 came to 9.4 nM. With `COCC[C@H]([C@H]1C[C@@H]1C(=O)NC1CC(C)(C(C)C)Oc2ccccc21)N1C(=N)NC(C)(C)CC1=O` (single isomer, unassigned) [Example 80B] the figure was 6.6 nM; with `COCC[C@H]([C@H]1C[C@@H]1C(=O)NC1CC(C)(C(C)C)Oc2ccccc21)N1C(=N)NC(C)(C)CC1=O` (single isomer, unassigned) [Example 80C], 14 nM. For `COCC[C@H]([C@H]1C[C@@H]1C(=O)NC1CC(C)(C(C)C)Oc2ccccc21)N1C(=N)NC(C)(C)CC1=O` (single isomer, unassigned) [Example 80D], the EC50 amounted to 21 nM.

As to `CC(C)C1(C)CC(NC(=O)[C@H]2C[C@@H]2[C@@H](c2cccnc2)N2C(=N)NC(C)(C)CC2=O)c2ccccc2O1` (single isomer, unassigned) [Example 81A], the EC50 worked out at 2.7 nM. With `CC(C)C1(C)CC(NC(=O)[C@H]2C[C@@H]2[C@@H](c2cccnc2)N2C(=N)NC(C)(C)CC2=O)c2ccccc2O1` (single isomer, unassigned) [Example 81B], the concentration giving a half-maximal response (EC50) turned out to be 1 nM.

In the case of `CC(C)C1(C)CC(NC(=O)[C@H]2C[C@@H]2[C@@H](c2cccnc2)N2C(=N)NC(C)(C)CC2=O)c2ccccc2O1` (single isomer, unassigned) [Example 81C], the EC50 was found to be 0.9 nM.

Consider `CC(C)C1(C)CC(NC(=O)[C@H]2C[C@@H]2[C@@H](c2cccnc2)N2C(=N)NC(C)(C)CC2=O)c2ccccc2O1` (single isomer, unassigned) [Example 81D], for which the EC50 is 1.3 nM. For the compound `COCC[C@H]([C@H]1C[C@@H]1C(=O)NC1CC(C)(COC)Oc2ccccc21)N1C(=N)NC(C)(C)CC1=O` (single isomer, unassigned) [Example 82A], the EC50 was found to be 24.4 nM. As for `COCC[C@H]([C@H]1C[C@@H]1C(=O)NC1CC(C)(COC)Oc2ccccc21)N1C(=N)NC(C)(C)CC1=O` (single isomer, unassigned) [Example 82B], the EC50 came out at 57 nM. Under `COCC[C@H]([C@H]1C[C@@H]1C(=O)NC1CC(C)(COC)Oc2ccccc21)N1C(=N)NC(C)(C)CC1=O` (single isomer, unassigned) [Example 82C] stands 53 nM; under `COCC[C@H]([C@H]1C[C@@H]1C(=O)NC1CC(C)(COC)Oc2ccccc21)N1C(=N)NC(C)(C)CC1=O` (single isomer, unassigned) [Example 82D], 27 nM; under `CC1(C)CC(=O)N([C@H](c2cccnc2)[C@H]2C[C@@H]2C(=O)NC2CC(C)(C)Oc3ccc(F)cc32)C(=N)N1` (single isomer, unassigned) [Example 98A], 0.9 nM.

As to `CC1(C)CC(=O)N([C@H](c2cccnc2)[C@H]2C[C@@H]2C(=O)NC2CC(C)(C)Oc3ccc(F)cc32)C(=N)N1` (single isomer, unassigned) [Example 98B], the EC50 came to 2.2 nM. For the compound `CC[C@]1(C)CC(=O)N(C(c2cncc(F)c2)[C@H]2C[C@@H]2C(=O)N[C@@H]2c3ccccc3OC(C)(C)C2(C)O)C(=N)N1` (single isomer, unassigned) [Example 103A], the EC50 came out at 29 nM. `CC[C@]1(C)CC(=O)N(C(c2cncc(F)c2)[C@H]2C[C@@H]2C(=O)N[C@@H]2c3ccccc3OC(C)(C)C2(C)O)C(=N)N1` (single isomer, unassigned) [Example 103B]: the EC50 was 2.1 nM. Turning to `CC[C@]1(C)CC(=O)N(C(c2cncc(F)c2)[C@H]2C[C@@H]2C(=O)NC2c3ccccc3OC(C(F)(F)F)C2O)C(=N)N1` (single isomer, unassigned) [Example 104A], the EC50 worked out at 4 nM. Take `CC[C@]1(C)CC(=O)N(C(c2cncc(F)c2)[C@H]2C[C@@H]2C(=O)NC2c3ccccc3OC(C(F)(F)F)C2O)C(=N)N1` (single isomer, unassigned) [Example 104B]: the EC50 was found to be 22 nM.

As for `CCC1(C)CC(NC(=O)[C@H]2C[C@@H]2[C@@H](c2cccnc2)N2C(=N)NC(C)(C)CC2=O)c2ccccc2O1` (single isomer, unassigned) [Example 105A], the EC50 was found to be 0.9 nM. For `CCC1(C)CC(NC(=O)[C@H]2C[C@@H]2[C@@H](c2cccnc2)N2C(=N)NC(C)(C)CC2=O)c2ccccc2O1` (single isomer, unassigned) [Example 105B], the EC50 was found to be 1.8 nM. As for `CCC1(C)CC(NC(=O)[C@H]2C[C@@H]2[C@@H](c2cccnc2)N2C(=N)NC(C)(C)CC2=O)c2ccccc2O1` (single isomer, unassigned) [Example 105C], the EC50 was found to be 0.8 nM. For the compound `CCC1(C)CC(NC(=O)[C@H]2C[C@@H]2[C@@H](c2cccnc2)N2C(=N)NC(C)(C)CC2=O)c2ccccc2O1` (single isomer, unassigned) [Example 105D], the EC50 amounted to 0.9 nM.
